Data as given in paper PMC9145765, “Identification and Molecular Characterization of the Operon Required for L-Asparagine Utilization in Corynebacterium glutamicum” (Microorganisms, 2022).

Columns and labels:
AnsR = molecular target: T1, AnsR (Corynebacterium glutamicum, UniProt A0AB72VEC9); assay: EMSA, release of promoter DNA from His-tagged AnsR; settings: effector abolishing operator DNA binding; […] L-Asn preincubated […] min; pH […]; room temperature
T1 construct: gene cgR_2807; His-tagged (pColdI, plasmid pCRC667), E. coli BL21(DE3), Ni-NTA; annotated start codon is wrong, true start is the ATG 12 nt downstream
T1 sequence (A0AB72VEC9 5-238 limits assumed): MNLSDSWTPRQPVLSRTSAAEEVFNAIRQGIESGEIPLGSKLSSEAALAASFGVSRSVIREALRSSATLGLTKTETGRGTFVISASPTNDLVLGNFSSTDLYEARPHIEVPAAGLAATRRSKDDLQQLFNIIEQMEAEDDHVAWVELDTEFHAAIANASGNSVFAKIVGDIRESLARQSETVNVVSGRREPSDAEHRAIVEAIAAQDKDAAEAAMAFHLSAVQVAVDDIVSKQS

[1] = tested on: T2, AnsR (Corynebacterium glutamicum R (JCM 18229)), ORF:3b2fc73c; assay: EMSA; settings: 20 mM Tris-HCl pH 8.0, 100 mM NaCl, 3 mM MgCl2, 5 mM CaCl2, 0.1 mM EDTA, 0.1 mM DTT, 10% glycerol, 0.15 mg/mL BSA, room temperature, 25 min; 5% PAGE in 0.5x …
T2 sequence: T1 sequence (A0AB72VEC9 5-238 limits assumed)

Compound | EMSA, release of promoter DNA from His-tagged AnsR (AnsR) | binding [1]
NC(=O)C[C@H](N)C(=O)O [L-Asn] | L-Asn inhibited the binding of AnsR to the site | –
GTTCATGGTGAACATCATGCATTGTGATGCACCTTACGTCAAGGACTTCTTGTTAAGTGATTCTCTTTGTGCAGGTTATGGCAATAAAAAGAACCTGCCCCGAAAAGGGAACAGGCTCTTTTTTCGGTAAGGGTTAAGCCAATGAAGCAAGTCCGAACATTGCGTAAGCCATGATGAAACCAACGATGGCAATACAGGTCTGGTTCACGGTCCAG (double strand) [probe -209 to +6] | – | no binding
